Reference: PubChem BioAssay (NCI)
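Each compound was tested at five concentrations against cells in 96-well plates for 48 hours. At the TGI there is no net growth.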

Key:
Test in all cases: NCI anticancer screen, dose series, 48 h
MDA-N = test system: MDA-N
SW-620 colon = test system: SW-620 colon
HCT-15 colon = test system: HCT-15 colon
NCI-H522 lung = test system: NCI-H522 lung
SNB-19 CNS = test system: SNB-19 CNS
COLO 205 colon = test system: COLO 205 colon
HCT-116 colon = test system: HCT-116 colon
786-0 renal = test system: 786-0 renal
CAKI-1 renal = test system: CAKI-1 renal
DU-145 prostate = test system: DU-145 prostate
MDA-MB-435 = test system: MDA-MB-435
A549 NSCLC = test system: A549 NSCLC
IGROV1 ovarian = test system: IGROV1 ovarian
NCI-H23 lung = test system: NCI-H23 lung
UACC-62 melanoma = test system: UACC-62 melanoma
ACHN renal = test system: ACHN renal
HL-60(TB) leukemia = test system: HL-60(TB) leukemia
MALME-3M melanoma = test system: MALME-3M melanoma
EKVX NSCLC = test system: EKVX NSCLC
SK-MEL-5 melanoma = test system: SK-MEL-5 melanoma
MOLT-4 leukemia = test system: MOLT-4 leukemia
PC-3 prostate = test system: PC-3 prostate
HOP-62 NSCLC = test system: HOP-62 NSCLC
RXF 393 renal = test system: RXF 393 renal
MDA-MB-231 breast = test system: MDA-MB-231 breast
SK-MEL-28 melanoma = test system: SK-MEL-28 melanoma
HS 578T breast = test system: HS 578T breast
OVCAR-4 ovarian = test system: OVCAR-4 ovarian
U251 CNS = test system: U251 CNS
NCI-H226 lung = test system: NCI-H226 lung
HCC-2998 colon = test system: HCC-2998 colon
NCI/ADR-RES ovarian = test system: NCI/ADR-RES ovarian
SNB-75 CNS = test system: SNB-75 CNS
SN12C renal = test system: SN12C renal
SK-MEL-2 melanoma = test system: SK-MEL-2 melanoma
M14 melanoma = test system: M14 melanoma
OVCAR-8 ovarian = test system: OVCAR-8 ovarian
T-47D breast = test system: T-47D breast
SF-539 CNS = test system: SF-539 CNS
NCI-H460 lung = test system: NCI-H460 lung
TK-10 renal = test system: TK-10 renal
LOX IMVI melanoma = test system: LOX IMVI melanoma
A498 renal = test system: A498 renal
OVCAR-5 ovarian = test system: OVCAR-5 ovarian
UO-31 renal = test system: UO-31 renal
K-562 leukemia = test system: K-562 leukemia
SF-268 CNS = test system: SF-268 CNS
SR leukemia = test system: SR leukemia
RPMI-8226 leukemia = test system: RPMI-8226 leukemia
OVCAR-3 ovarian = test system: OVCAR-3 ovarian
SK-OV-3 ovarian = test system: SK-OV-3 ovarian
UACC-257 melanoma = test system: UACC-257 melanoma
KM12 colon = test system: KM12 colon
HT29 colon = test system: HT29 colon
MCF7 breast = test system: MCF7 breast
CCRF-CEM leukemia = test system: CCRF-CEM leukemia
SF-295 CNS = test system: SF-295 CNS
BT-549 breast = test system: BT-549 breast
HOP-92 NSCLC = test system: HOP-92 NSCLC

N=C(N)n1[nH]c2c(c1=O)CCCC2
TGI (MDA-N): > 100 µM
TGI (SW-620 colon): > 100 µM
TGI (HCT-15 colon): > 100 µM
TGI (NCI-H522 lung): > 100 µM
TGI (SNB-19 CNS): > 100 µM
TGI (COLO 205 colon): > 100 µM
TGI (HCT-116 colon): > 100 µM
TGI (786-0 renal): > 100 µM
TGI (CAKI-1 renal): > 100 µM
TGI (DU-145 prostate): > 100 µM
TGI (MDA-MB-435): > 100 µM
TGI (A549 NSCLC): > 100 µM
TGI (IGROV1 ovarian): > 100 µM
TGI (NCI-H23 lung): > 100 µM
TGI (UACC-62 melanoma): > 100 µM
TGI (ACHN renal): > 100 µM
TGI (HL-60(TB) leukemia): > 100 µM
TGI (MALME-3M melanoma): > 100 µM
TGI (EKVX NSCLC): > 100 µM
TGI (SK-MEL-5 melanoma): > 100 µM
TGI (MOLT-4 leukemia): > 100 µM
TGI (PC-3 prostate): > 100 µM
TGI (HOP-62 NSCLC): > 100 µM
TGI (RXF 393 renal): > 100 µM
TGI (MDA-MB-231 breast): > 100 µM
TGI (SK-MEL-28 melanoma): > 100 µM
TGI (HS 578T breast): > 100 µM
TGI (OVCAR-4 ovarian): > 100 µM
TGI (U251 CNS): > 100 µM
TGI (NCI-H226 lung): > 100 µM
TGI (HCC-2998 colon): > 100 µM
TGI (NCI/ADR-RES ovarian): > 100 µM
TGI (SNB-75 CNS): 99.7 µM
TGI (SN12C renal): > 100 µM
TGI (SK-MEL-2 melanoma): > 100 µM
TGI (M14 melanoma): > 100 µM
TGI (OVCAR-8 ovarian): > 100 µM
TGI (T-47D breast): > 100 µM
TGI (SF-539 CNS): > 100 µM
TGI (NCI-H460 lung): > 100 µM
TGI (TK-10 renal): > 100 µM
TGI (LOX IMVI melanoma): > 100 µM
TGI (A498 renal): > 100 µM
TGI (OVCAR-5 ovarian): > 100 µM
TGI (UO-31 renal): > 100 µM
TGI (K-562 leukemia): > 100 µM
TGI (SF-268 CNS): > 100 µM
TGI (SR leukemia): > 100 µM
TGI (RPMI-8226 leukemia): > 100 µM
TGI (OVCAR-3 ovarian): > 100 µM
TGI (SK-OV-3 ovarian): > 100 µM
TGI (UACC-257 melanoma): > 100 µM
TGI (KM12 colon): > 100 µM
TGI (HT29 colon): > 100 µM
TGI (MCF7 breast): > 100 µM
TGI (CCRF-CEM leukemia): > 100 µM
TGI (SF-295 CNS): > 100 µM

CC1(C)C(=S)C(C)(C)C1=S
TGI (MDA-N): > 100 µM
TGI (SW-620 colon): > 100 µM
TGI (HCT-15 colon): > 100 µM
TGI (SNB-19 CNS): > 100 µM
TGI (COLO 205 colon): > 100 µM
TGI (HCT-116 colon): > 100 µM
TGI (786-0 renal): > 100 µM
TGI (DU-145 prostate): > 100 µM
TGI (MDA-MB-435): > 100 µM
TGI (A549 NSCLC): > 100 µM
TGI (IGROV1 ovarian): > 100 µM
TGI (NCI-H23 lung): > 100 µM
TGI (UACC-62 melanoma): > 100 µM
TGI (ACHN renal): > 100 µM
TGI (MALME-3M melanoma): > 100 µM
TGI (EKVX NSCLC): > 100 µM
TGI (SK-MEL-5 melanoma): > 100 µM
TGI (MOLT-4 leukemia): > 100 µM
TGI (PC-3 prostate): > 100 µM
TGI (HOP-62 NSCLC): > 100 µM
TGI (MDA-MB-231 breast): > 100 µM
TGI (SK-MEL-28 melanoma): > 100 µM
TGI (HS 578T breast): > 100 µM
TGI (OVCAR-4 ovarian): > 100 µM
TGI (U251 CNS): > 100 µM
TGI (NCI-H226 lung): > 100 µM
TGI (HCC-2998 colon): > 100 µM
TGI (NCI/ADR-RES ovarian): > 100 µM
TGI (SNB-75 CNS): > 100 µM
TGI (SN12C renal): > 100 µM
TGI (SK-MEL-2 melanoma): > 100 µM
TGI (M14 melanoma): > 100 µM
TGI (T-47D breast): > 100 µM
TGI (SF-539 CNS): > 100 µM
TGI (NCI-H460 lung): > 100 µM
TGI (TK-10 renal): > 100 µM
TGI (LOX IMVI melanoma): > 100 µM
TGI (OVCAR-5 ovarian): > 100 µM
TGI (UO-31 renal): > 100 µM
TGI (K-562 leukemia): > 100 µM
TGI (SF-268 CNS): > 100 µM
TGI (SR leukemia): > 100 µM
TGI (RPMI-8226 leukemia): > 100 µM
TGI (OVCAR-3 ovarian): > 100 µM
TGI (SK-OV-3 ovarian): > 100 µM
TGI (UACC-257 melanoma): > 100 µM
TGI (KM12 colon): > 100 µM
TGI (HT29 colon): > 100 µM
TGI (MCF7 breast): > 100 µM

CN(C)CC(CO)(CN(C)C)CN(C)C
TGI (MDA-N): > 100 µM
TGI (SW-620 colon): > 100 µM
TGI (HCT-15 colon): > 100 µM
TGI (NCI-H522 lung): > 100 µM
TGI (SNB-19 CNS): > 100 µM
TGI (COLO 205 colon): > 100 µM
TGI (HCT-116 colon): > 100 µM
TGI (786-0 renal): > 100 µM
TGI (CAKI-1 renal): > 100 µM
TGI (DU-145 prostate): > 100 µM
TGI (BT-549 breast): > 100 µM
TGI (A549 NSCLC): > 100 µM
TGI (IGROV1 ovarian): > 100 µM
TGI (NCI-H23 lung): > 100 µM
TGI (UACC-62 melanoma): > 100 µM
TGI (ACHN renal): > 100 µM
TGI (HL-60(TB) leukemia): > 100 µM
TGI (MALME-3M melanoma): > 100 µM
TGI (EKVX NSCLC): > 100 µM
TGI (SK-MEL-5 melanoma): > 100 µM
TGI (MOLT-4 leukemia): > 100 µM
TGI (PC-3 prostate): > 100 µM
TGI (HOP-62 NSCLC): > 100 µM
TGI (RXF 393 renal): > 100 µM
TGI (SK-MEL-28 melanoma): > 100 µM
TGI (OVCAR-4 ovarian): > 100 µM
TGI (U251 CNS): > 100 µM
TGI (NCI-H226 lung): > 100 µM
TGI (NCI/ADR-RES ovarian): > 100 µM
TGI (SNB-75 CNS): > 100 µM
TGI (SN12C renal): > 100 µM
TGI (M14 melanoma): > 100 µM
TGI (OVCAR-8 ovarian): > 100 µM
TGI (SF-539 CNS): > 100 µM
TGI (NCI-H460 lung): > 100 µM
TGI (TK-10 renal): > 100 µM
TGI (OVCAR-5 ovarian): > 100 µM
TGI (UO-31 renal): > 100 µM
TGI (K-562 leukemia): > 100 µM
TGI (SF-268 CNS): > 100 µM
TGI (SR leukemia): > 100 µM
TGI (RPMI-8226 leukemia): > 100 µM
TGI (HOP-92 NSCLC): > 100 µM
TGI (OVCAR-3 ovarian): > 100 µM
TGI (SK-OV-3 ovarian): > 100 µM
TGI (UACC-257 melanoma): > 100 µM
TGI (KM12 colon): > 100 µM
TGI (HT29 colon): > 100 µM
TGI (MCF7 breast): > 100 µM
TGI (CCRF-CEM leukemia): > 100 µM
TGI (SF-295 CNS): > 100 µM
